Test results as given in publication PMC3293837, “Biophysical Property and Broad Anti-HIV Activity of Albuvirtide, a 3-Maleimimidopropionic Acid-Modified Peptide Fusion Inhibitor” (PLoS ONE, 2012).

Key:
[1] = system: 92RW020 pseudovirus (subtype A); assay type: cell-based, HIV-1; conditions: 92RW020, subtype A, R5; TZM-bl, 48 h; triplicate, mean ± SD of three independent experiments
Excerpt: (§1) A panel of plasmids encoding HIV-1 Envs were obtained through the AIDS Research and Reference Reagent Program (ARRRP), Division of AIDS, NIAID, NIH, including subtype A Env clones pSVIII-92RW020.5 and 92UG037.8 from Dr. B.H. Hahn; subtype B Env clones SC422661.8, TRO.11 and AC10.0.29 from Drs. D. Montefiori, F. Gao and M. Li, pRHPA4259.7 and pREJO4541.67 from Drs. B.H. Hahn and J.F. Salazar-Gonzalez, and pCAAN5342.A2 from Drs. B.H. Hahn and D.L. Kothe; subtype C Env clones Du172.17 and Du422.1 from Drs. D. Montefiori, F. Gao, S. Abdool Karim and G. Ramjee, CAP45.2.00.G3 from Drs. L. Morris, K. Mlisana and D. Montefiori, ZM197M.PB7 from Drs. B.H. Hahn, Y. Li and J.F. Salazar-Gonzalez, ZM109F.PB4 from Drs. E. Hunter and C. Derdeyn. Six CRF07_BC Env clones (CH064.20, CH070.1, CH091.9, CH110.2, CH119.10 and CH120.6) were generous gifts by Dr. Y. Shao in the Chinese Center for Disease Control and Prevention, Beijing, China. A panel of Env clones derived from subtype B′ (B01, B02, B04, and 43-22), CRF01_AE (SHX335.24, YN192.31, AE01, AE03, GX2010.36, GX11.13, GX2010.36H, BJ5.11), and CRF07_BC (BC02, BC03, BC05, BC07, BC14, SC19-15, BJ22-5, YN148R-9, XJ50-6, HB5-3) were kindly provided by Dr. Y. Wang from the National Institute for the Control of Pharmaceutical and Biological Products, Beijing, China.

[2] = system: YN148r-9 pseudovirus (CRF07_BC); assay type: cell-based, HIV-1; conditions: YN148r-9, CRF07_BC, R5; TZM-bl, 48 h; triplicate, mean ± SD of at least three independent experiments
Excerpt: as §1

[3] = system: 92UG037.8 pseudovirus (subtype A); assay type: cell-based, HIV-1; conditions: 92UG037.8, subtype A, R5; TZM-bl, 48 h; triplicate, mean ± SD of three independent experiments
Excerpt: as §1

[4] = system: REJO4541 pseudovirus (subtype B); assay type: cell-based, HIV-1; conditions: R5, TZM-bl, 48 h, triplicate, mean ± SD of three independent experiments
Excerpt: as §1

[5] = system: HIV-1NL4-3 V38M pseudovirus; assay type: cell-based
Protocol: (§2) HIV-1 pseudoviruses were generated as described previously [32], [55]–[56]. Briefly, 293T cells (5×10^6 cells in 15 ml of growth medium in a T-75 culture flask) were cotransfected with 10 µg of an Env-expressing plasmid and 20 µg of a backbone plasmid pSG3deltaEnv that encodes Env-defective, luciferase-expressing HIV-1 genome using Lipofectamine 2000 reagent (Invitrogen). Pseudovirus-containing culture supernatants were harvested 48 hours after transfection and filtered by 0.45-mm pore size, and stored at −80°C in 1-ml aliquots until use. The 50% tissue culture infectious dose (TCID50) of a single thawed aliquot of each pseudovirus batch was determined in TZM-bl cells. […] Briefly, the peptides were prepared with ten series dilutions in a 3-fold stepwise manner and mixed with 100 TCID50 viruses and incubated 1 hour at room temperature. The mixture was added to TZM-bl cells (10^4/well) and incubation at 37°C for 48 hours. Luciferase activity was measured using luciferase assay regents (Promega, Medison, WI) and a Luminescence Counter (Promega) according to the manufacture's instructions.

[6] = system: HIV-1NL4-3 Q40H pseudovirus; assay type: cell-based; conditions: HIV-1NL4-3 Q40H; TZM-bl, 48 h; mean ± SD of three independent experiments
Protocol: (§3) The mutations were created using double-stranded DNA templates and selection of mutants with DpnI. For each mutation, the two primers contained the desired mutation and occupied the same starting and ending positions on opposite strands of the plasmid DNA. DNA synthesis was carried out by PCR in a 50-µL reaction volume using 1 µL of denatured plasmid template (1 ng/µL), 50 pmol of upper and lower primers and 5 U of high-fidelity thermostable polymerase PrimeStar (Takara, Dalian, China). PCR amplification was carried out for one cycle of denaturation at 98°C for 5 min, then 18 cycles of 98°C for 15 s and 68°C for 15 min, followed a final extension at 72°C for 10 min. The amplicons were treated with the restriction enzyme DpnI for 1 h at 37°C. DpnI-resistant molecules, which were rich in the desired mutants, were recovered by transforming Escherichia coli strain-DH5α to antibiotic resistance. The successful mutations were confirmed by sequencing.
as §2

[7] = system: HIV-1HXB2 Env-mediated cell-cell membrane fusion (TZM-bl / HL2/3 cells); conditions: read-out: IC50, Env-mediated cell-cell fusion; TZM-bl with HL2/3 cells, 6 h, 37°C, luciferase; three independent experiments
Protocol: Cell fusion was monitored using a reporter gene assay based on activation of HIV LTR-driven luciferase cassette in TZM-bl (Target) cells by HIV-1 tat from the HL2/3 (Effector) cells. Briefly, the TZM-bl cells were plated in 96-well clusters (2×10^4 per well) and incubated at 37°C overnight. […] Luciferase activity was measured using luciferase assay regents (Promega, Medison, WI) and a Luminescence Counter (Promega) according to the manufacture's instructions. Background luminescence in TZM-bl cells was determined without addition of HL2/3 cells.

[8] = system: HIV-1NL4-3 N43K pseudovirus; assay type: cell-based; conditions: HIV-1NL4-3 N43K; TZM-bl, 48 h; mean ± SD of three independent experiments
Protocol: as §3, §2

[9] = system: T20-resistant HIV-1NL4-3 variants; conditions: HIV-1NL4-3 with single or double gp41 mutations
Protocol: Luciferase activity was measured using luciferase assay regents (Promega, Medison, WI) and a Luminescence Counter (Promega) according to the manufacture's instructions.

[10] = system: HIV-1NL4-3 V38A/N42T pseudovirus; assay type: cell-based
Protocol: as §2

[11] = system: HIV-1 subtype B′ pseudoviruses; assay type: cell-based; conditions: mean over subtype B′ pseudoviruses of Table 2; TZM-bl
Excerpt: as §1

[12] = system: HIV-1 subtype C pseudoviruses; assay type: cell-based; conditions: mean over subtype C pseudoviruses of Table 1; TZM-bl
Excerpt: as §1

[13] = system: HIV-1 subtype A pseudoviruses; assay type: cell-based; conditions: mean over subtype A pseudoviruses of Table 1; TZM-bl
Excerpt: as §1

[14] = system: HIV-1 CRF01_AE pseudoviruses; assay type: cell-based; conditions: mean over CRF01_AE pseudoviruses of Table 2; TZM-bl
Excerpt: as §1

[15] = system: HIV-1 subtype B pseudoviruses; assay type: cell-based
Excerpt: as §1

[16] = system: HIV-1 CRF07_BC pseudoviruses; assay type: cell-based; conditions: mean over CRF07_BC pseudoviruses of Table 2; TZM-bl
Excerpt: as §1

[17] = system: HIV-1NL4-3 I37T/N43K pseudovirus; assay type: cell-based; conditions: HIV-1NL4-3 I37T/N43K; TZM-bl, 48 h; mean ± SD of three independent experiments
Protocol: as §3, §2

HIV-1 = conditions: cited from earlier work
[18] = system: HIV-1NL4-3 I37V/V38T infectious molecular clone; assay type: cell-based
Protocol: The mutant viruses were generated by transient transfection of NL4-3 plasmids into 293T cells. The virus stocks were harvested 48 hours post-transfection and quantified for TCID50. […] In brief, 100 TCID50 viruses were used to infect TZM-bl cells in the presence or absence of serially diluted peptides. Two days post-infection, the cells were harvested and lysed in reporter lysis buffer, and the luciferase activity was measured. The IC50 was calculated as described above using GraphPad Prism software (GraphPad Prism software Inc., San Diego, CA).

enfuvirtide showed an IC50 [1] of 25.4 ± 9.81 nM, an IC50 [2] of 131 ± 14.7 nM and an IC50 [3] of 3.55 ± 0.95 nM. For the same substance, the IC50 [4] was 78.1 ± 11.3 nM, the IC50 ([5]; HIV-1NL4-3 V38M, TZM-bl, 48 h, mean ± SD of three independent experiments) was 646 ± 57.7 nM and the “resistance change with V38M (in words)” value ([5]; V38M single mutation) was “high-fold resistance changes”. The IC50 [6] was 731 ± 35.2 nM, the IC50 [7] was 56.2 nM and the IC50 [8] was 262 ± 44.4 nM. For the same substance, the “activity on T20-resistant variants (in words)” value [9] was “high level resistance”, the IC50 ([10]; HIV-1NL4-3 V38A/N42T, TZM-bl, 48 h, mean ± SD of three independent experiments) was greater than 3000 nM and the “resistance change with V38A/N42T (in words)” value ([10]; V38A/N42T double mutations) was “high-fold resistance changes”. The IC50 [11] was 19.5 nM, the IC50 [12] was 55.2 nM and the IC50 [13] was 14.5 nM. For the same substance, the IC50 [14] was 68.1 nM, the IC50 ([15]; mean over subtype B pseudoviruses of Table 1, TZM-bl) was 214 nM and the “sensitivity of some subtype B Envs (in words)” value ([15]; some Envs derived from subtype B, compared to other HIV-1 isolates) was “much less sensitive”. The IC50 [16] was 47.2 nM, the IC50 [17] was greater than 3000 nM and the “inhibition of viral entry (in words)” value (HIV-1) was “low nanomolar concentration”. The IC50 ([18]; I37V/V38T infectious molecular clone of HIV-1NL4-3, TZM-bl, 100 TCID50, two days, mean ± SD of three independent experiments) was greater than 750 nM and the “inhibitory activity on I37V/V38T virus (in words)” value ([18]; infectious molecular clone, T20 up to 750 nM) was “no any inhibitory activity at a concentration up to 750 nM”.
